# Test results taken from patent US4504463A, “Process for making a lyophilized product for use in skeletal imaging” (Mallinckrodt, Inc., priority 1982, dated 1985).
# Assay: Skeletal imaging with scintillation camera after intravenous injection
# Type: in vivo, adult human
# Conditions: for results when used instead of AMDP: carrier replaced in Example II kit; for results when used instead of the disodium salt of HMDP: carrier replaced in Example I kit
# Experimental: An imaging agent is prepared using this kit by adding about 5 ml of a pertechnetate-Tc99m physiological saline with an activity of about 75 mCi, from a commercial technetium source. The vial is agitated until the kit components are dissolved. About 1 ml of the agent is slowly injected, over a period of about 30 seconds, into an adult human subject weighing about 75 kg.
compound,measurement,setting,value
OCc1cc(O)ccc1O [gentisyl alcohol],results when used instead of gentisic acid,stabilizer replaced in Example I kit,substantially similar results
NC(O)(P(=O)(O)O)P(=O)(O)O [methaneaminohydroxydiphosphonic acid],results when used instead of AMDP,,substantially similar results
"O=P(O)(O)CP(=O)(O)O [MDP, methanediphosphonic acid]",results when used instead of the disodium salt of HMDP,,substantially similar results
"CC(O)(P(=O)(O)O)P(=O)(O)O [EHDP, ethane-1-hydroxy-1,1-diphosphonic acid]",results when used instead of the disodium salt of HMDP,,substantially similar results
"O=P(O)(O)C(O)P(=O)(O)O [HMDP, methanehydroxydiphosphonic acid]",results when used instead of the disodium salt of HMDP,,substantially similar results
Oc1ccc(O)cc1 [hydroquinone],results when used instead of gentisic acid,in vivo,substantially similar results
"NCC(O)(P(=O)(O)O)P(=O)(O)O [ethane-1-hydroxy-2-amino-1,1-diphosphonic acid]",results when used instead of AMDP,,substantially similar results
"CN(C)C(P(=O)(O)O)P(=O)(O)O [methane-N,N-dimethylaminodiphosphonic acid]",results when used instead of AMDP,,substantially similar results
stannous fluoride,results when used with or instead of stannous chloride,in vivo,substantially similar results
CNC(P(=O)(O)O)P(=O)(O)O [methane-N-methylaminodiphosphonic acid],results when used instead of AMDP,,substantially similar results
O=S(=O)([O-])[O-].[Sn+2] [stannous sulfate],results when used with or instead of stannous chloride,reductant replaced or added in Example II kit,substantially similar results
